Key:
[1] = test system: patients with moderate or several chronic obstructive pulmonary disease (COPD); test: Double-blind placebo-controlled crossover trial in chronic obstructive pulmonary disease (Example 11); format: in vivo, human
Procedure: Two similar randomized, double-blind, placebo (PLC)-controlled crossover trials were conducted, one in asthmatics with a positive adenosine monophosphate (AMP) challenge (a validated marker of airway inflammation) and one in patients with moderate or several chronic obstructive pulmonary disease (COPD). In both studies, short-acting bronchodilators were held prior to and for the 120 minute time frame study drug treatment during which spirometry was repeatedly assessed.

[2] = test system: subjects undergoing pharmacologic stress MPI; test: Adverse effects and hemodynamics in pharmacologic stress myocardial perfusion imaging protocol (Example 7); format: in vivo, human
Text: 36 subjects (27 men, 9 women; 67±10 years) were studied with two doses of Regadenoson [400 mcg (n=18), 500 mcg (n=18)], administered as an IV bolus, as part of a pharmacologic stress myocardial perfusion imaging protocol.

[3] = 400 or 500 mcg IV bolus, 36 subjects

CNC(=O)c1cnn(-c2nc(N)c3ncn([C@@H]4O[C@H](CO)[C@@H](O)[C@H]4O)c3n2)c1 [Regadenoson, (1-{9-[(4S,2R,3R,5R)-3,4-dihydroxy-5-(hydroxymethyl)oxolan-2-yl]-6-aminopurin-2-yl}pyrazol-4-yl)-N-methylcarboxamide]
incidence of dyspnea following REG ([1]; COPD study): 61% | Number of patients with FEV1 decline by >20% over 120 min ([1]; COPD study N=49): 2 REG, 3 PLC | Number of patients with FEV1 decline by >30% over 120 min ([1]; COPD study N=49): 0 REG, 1 PLC | Number of patients with use of acute oxygen or short-acting bronchodilators ([1]; COPD study N=49): 0 REG, 0 PLC | Number of patients with FEV1 decline by >15% over 120 min ([1]; COPD study N=49, p = 0.31): 6 REG, 3 PLC | Number of patients with new onset wheezing ([1]; COPD study N=49, p = 0.33 vs PLC): 3 REG, 6 PLC | Maximum decline in FEV1 ([1]; COPD study N=49, p = 0.55 vs PLC): 0.11 (0.14)L REG | Maximum decline in oxygen saturation ([1]; COPD study N=49, p = 0.72 vs PLC): 1.21 (1.30)% REG | incidence of dizziness ([2]; 400-mcg group): 11% | incidence of dyspnea ([2]; 400-mcg group): 17% | incidence of flushing ([2]; 400-mcg group): 17% | mean change in HR response ([2]; 400 mcg dose): 34.8% | patients with adverse effects (AE) [2, 3]: 72% | patients with adverse effects (AE), number [2, 3]: 26 pts | incidence of dizziness ([2]; 500-mcg group): 28% | incidence of dyspnea ([2]; 500-mcg group): 44% | incidence of flushing ([2]; 500-mcg group): 44% | mean change in HR response ([2]; 500 mcg dose): 44.2% | incidence of abdominal pain ([2]; both doses): 11% | incidence of chest discomfort ([2]; both doses): 33% | incidence of headache ([2]; both doses): 25% | lowest systolic BP (did not fall below) ([2]; either dose): ≥ 90 mmHg | serious AE ([2]; exacerbation of a migraine headache, required hospitalization): One serious AE occurred | AEs resolved within 15 min without treatment ([2]; in vivo): 91% | AEs that were mild to moderate ([2]; in vivo): 96% | AV block and arrhythmias ([2]; in vivo): No 2nd or 3rd degree AV block was noted and there were no serious arrhythmias | patients developing ST abnormalities ([2]; in vivo): 7 pts | patients developing T wave abnormalities ([2]; in vivo): 5 pts | time of peak hemodynamic effect, diastolic BP ([2]; in vivo): 8 min | time of peak hemodynamic effect, heart rate ([2]; in vivo): ≤ 2 min | time of peak hemodynamic effect, systolic BP ([2]; in vivo): 4 min | Diastolic BP, Absolute Change (peak) ([2]; mean ±S.D., 400 and 500 mcg): −5.4 ± 7.2 mmHg | Diastolic BP, Relative Change (peak) ([2]; mean ±S.D., 400 and 500 mcg): −7.9% ± 10.5% | Heart Rate, Absolute Change (peak) ([2]; mean ±S.D., 400 and 500 mcg): +21.9 ± 10.4 beats per min | Heart Rate, Relative Change (peak) ([2]; mean ±S.D., 400 and 500 mcg): +36.7% + 21.0% | Systolic BP, Absolute Change (peak) ([2]; mean ±S.D., 400 and 500 mcg): −5.9 ± 10.7 mmHg | Systolic BP, Relative Change (peak) ([2]; mean ±S.D., 400 and 500 mcg): −4.1% ± 7.6% | BP deviation from baseline ([2]; thirty min after Regadenoson): < 2% | HR above baseline ([2]; thirty min after Regadenoson): 8.6%

From patent US20080170990A1, “Methods for Myocardial Imaging in Patients Having a History of Pulmonary Disease” (CV THERAPEUTICS, INC., priority 2006, published 2008)
